Test results published in patent US9149471B2, “Therapeutic agent for osteoporosis” (NATIONAL UNIV. CORP. TOKYO UNIV. OF AG. AND TECH, priority 2013, dated 2015).

Tests used:
[1] = system: mouse model intratibially transplanted with a PC-3 human prostate cancer cell line; assay: Abnormal bone formation and bone resorption in mouse model intratibially transplanted with PC-3 cells (μCT); format: in vivo; details: PC-3 in mouse tibia, 200 mg/kg/day orally every day for 10 days
Procedure: Inhibitory Effect on the Abnormal Bone Formation and Bone Resorption in the Mouse Model Intratibially Transplanted with a PC-3 Human Prostate Cancer Cell Line
The PC-3 human prostate cancer cell line was transplanted in the mouse tibia at 2×10^6 cells/15 μL. On the following day of transplantation, the mice were grouped so that the average body weight of the mice in each group was equal, and the compound IA was administered orally at 200 mg/kg/day every day for 10 days. On Day 11 after transplantation, the graft site was imaged by μCT and bone lesions were evaluated.

[2] = system: mouse model intratibially transplanted with an A549-luc-BM1 human lung cancer cell line; assay: Abnormal bone formation and bone resorption in mouse model intratibially transplanted with A549-luc-BM1 cells (μCT); format: in vivo; details: A549-luc-BM1 in mouse tibia
Text: Inhibitory Effect on the Abnormal Bone Formation and Bone Resorption in the Mouse Model Intratibially Transplanted an A549-Luc-BM1 Human Lung Cancer Cell Line The A549 human lung cancer cell line in which the luciferase gene was transfected was transplanted in the left ventricle of nude mice, whereby the A549-luc-BM1 lung cancer cell line, which selectively metastasizes to and proliferates in the bone, was established. The cells thus obtained were transplanted in the mouse tibia at 2×10^6 cells/15 μL. On Day 7 after transplantation, the luciferase activity in the graft site was measured by an in-vivo imaging system. Subsequently, the mice were grouped so that the average luciferase activity of each group was equal, and the compound IA was administered orally at 200 mg/kg/day every day for 28 days. The treatment control group received subcutaneous administration of zoledronic acid, which is the third-generation bisphosphonate preparation, at 0.2 mg/kg/day twice a week. For the evaluation of bone lesions, the graft site was imaged by μCT on Day 36 after transplantation.

Compound: CNC(=O)c1cc2c(Oc3ccc(NC(=S)NC(=O)Cc4ccccc4)cc3F)ccnc2cc1OC [Compound IA, 4-[2-fluoro-4-[[[(2-phenylacetyl)amino]thioxomethyl]amino]-phenoxy]-7-methoxy-N-methyl-6-quinolinecarboxamide]
- bone mass (inhibition of accelerated metabolic bone destruction and formation of abnormal brittle bone) [1]: maintained a normal level of bone mass
- death and body weight reduction [1]: without causing death or reducing body weight
- abnormal bone formation in the bone at the graft site (μCT, FIG. 1) ([1]; μCT on Day 11 after transplantation): evidently inhibited the abnormal bone formation
- inhibitory effect on abnormal bone metabolism (bone resorption and bone formation) compared with zoledronic acid ([2]; 200 mg/kg/day orally for 28 days): better inhibitory effect on abnormal bone metabolism (bone resorption and bone formation) than zoledronic acid
- bone destruction and deformation at the graft site (μCT, FIG. 2) ([2]; compound IA 200 mg/kg/day orally for 28 days, zoledronic acid 0.2 mg/kg/day s.c. twice a week, μCT on Day 36): remarkably inhibited bone destruction and deformation
